{"source": "patent US20030095958A1", "about": "“Inhibitors of bace” (priority 2001, published 2003)", "note": "pKi: −log10 of the molar value.", "data": [{"molecular_target": "BACE (Homo sapiens, UniProt P56817)", "sequence (P56817 46-501)": "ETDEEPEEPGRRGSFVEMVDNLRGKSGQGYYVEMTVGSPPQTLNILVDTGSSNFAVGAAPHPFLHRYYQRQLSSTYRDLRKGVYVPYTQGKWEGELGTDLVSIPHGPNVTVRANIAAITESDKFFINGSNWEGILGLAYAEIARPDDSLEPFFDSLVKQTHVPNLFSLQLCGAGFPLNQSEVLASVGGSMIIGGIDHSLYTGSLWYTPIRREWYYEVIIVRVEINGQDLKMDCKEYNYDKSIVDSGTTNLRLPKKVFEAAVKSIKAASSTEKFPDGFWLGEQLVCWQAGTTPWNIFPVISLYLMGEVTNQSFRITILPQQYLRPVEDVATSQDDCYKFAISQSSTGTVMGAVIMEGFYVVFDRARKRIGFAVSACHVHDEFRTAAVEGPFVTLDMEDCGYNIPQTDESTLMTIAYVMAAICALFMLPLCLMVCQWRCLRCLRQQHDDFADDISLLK", "assay": "Ki Determination for the Inhibition of BACE (FS-1 peptide fluorescence cleavage assay)", "format": "biochemical", "conditions": "apparent Ki; 50 nM BACE, 10 μM FS-1 substrate, 0.1M sodium acetate pH 4.5", "how_it_was_run": "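Human BACE (50 nM) was preincubated 15 min at room temperature with compound (2% DMSO) in 0.1 M sodium acetate pH 4.5, then 10 μM FS-1 peptide was added. Cleavage was followed by fluorescence (ex 355/em 495 nm), and apparent Ki came from fitting to the integrated competitive tight-binding inhibition equation.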", "values": [{"compound": "FC(F)(F)c1ccccc1OCc1cc(-c2ccc3ccccc3c2)c(COc2ccccc2C(F)(F)F)cc1C1=CCNCC1", "note": "[Compound 339, 4-[4-Naphthalen-2-yl-2,5-bis-(2-trifluoromethyl-phenoxymethyl)-phenyl]-1,2,3,6-tetrahydro-pyridine]", "pKi": "4.52 to 5.52"}, {"compound": "FC(F)(F)c1ccccc1OCc1cc(-c2cccnc2)c(COc2ccccc2C(F)(F)F)cc1C1=CCNCC1", "note": "[Compound 340, 3-[4-(1,2,3,6-Tetrahydro-pyridin-4-yl)-2,5-bis-(2-trifluoromethyl-phenoxymethyl)-phenyl]-pyridine]", "pKi": "> 5.52"}, {"compound": "FC(F)(F)c1ccccc1OCc1cc(-c2ccncc2)c(COc2ccccc2C(F)(F)F)cc1C1=CCNCC1", "note": "[Compound 341, 4-[4-(1,2,3,6-Tetrahydro-pyridin-4-yl)-2,5-bis-(2-trifluoromethyl-phenoxymethyl)-phenyl]-pyridine]", "pKi": "> 5.52"}, {"compound": "FC(F)(F)c1ccccc1OCc1cc(-c2ccsc2)c(COc2ccccc2C(F)(F)F)cc1C1=CCNCC1", "note": "[Compound 342, 4-[4-Thiophen-3-yl-2,5-bis-(2-trifluoromethyl-phenoxymethyl)-phenyl]-1,2,3,6-tetrahydro-pyridine]", "pKi": "> 5.52"}, {"compound": "FC(F)(F)c1ccccc1OCc1cc(-c2ccoc2)c(COc2ccccc2C(F)(F)F)cc1C1=CCNCC1", "note": "[Compound 343, 4-[4-Furan-3-yl-2,5-bis-(2-trifluoromethyl-phenoxymethyl)-phenyl]-1,2,3,6-tetrahydro-pyridine]", "pKi": "> 5.52"}, {"compound": "O=[N+]([O-])c1ccccc1-c1cc(COc2ccccc2C(F)(F)F)c(C2=CCNCC2)cc1COc1ccccc1C(F)(F)F", "note": "[Compound 344, 4-[2′-Nitro-2,5-bis-(2-trifluoromethyl-phenoxymethyl)-biphenyl-4-yl]-1,2,3,6-tetrahydro-pyridine]", "pKi": "> 5.52"}, {"compound": "FC(F)(F)c1ccccc1OCc1cc(-c2cccs2)c(COc2ccccc2C(F)(F)F)cc1C1=CCNCC1", "note": "[Compound 345, 4-[4-Thiophen-2-yl-2,5-bis-(2-trifluoromethyl-phenoxymethyl)-phenyl]-1,2,3,6-tetrahydro-pyridine]", "pKi": "> 5.52"}, {"compound": "FC(F)(F)c1ccccc1OCc1cc(-c2ccco2)c(COc2ccccc2C(F)(F)F)cc1C1=CCNCC1", "note": "[Compound 346, 4-[4-Furan-2-yl-2,5-bis-(2-trifluoromethyl-phenoxymethyl)-phenyl]-1,2,3,6-tetrahydro-pyridine]", "pKi": "> 5.52"}, {"compound": "Fc1ccccc1-c1cc(COc2ccccc2C(F)(F)F)c(C2=CCNCC2)cc1COc1ccccc1C(F)(F)F", "note": "[Compound 347, 4-[2′-Fluoro-2,5-bis-(2-trifluoromethyl-phenoxymethyl)-biphenyl-4-yl]-1,2,3,6-tetrahydro-pyridine]", "pKi": "> 5.52"}, {"compound": "FC(F)(F)c1ccccc1OCc1cc(-c2ccccc2Cl)c(COc2ccccc2C(F)(F)F)cc1C1=CCNCC1", "note": "[Compound 348, 4-[2′-Chloro-2,5-bis-(2-trifluoromethyl-phenoxymethyl)-biphenyl-4-yl]-1,2,3,6-tetrahydro-pyridine]", "pKi": "> 5.52"}, {"compound": "Fc1cccc(F)c1-c1cc(COc2ccccc2C(F)(F)F)c(C2=CCNCC2)cc1COc1ccccc1C(F)(F)F", "note": "[Compound 349, 4-[2′,6′-Difluoro-2,5-bis-(2-trifluoromethyl-phenoxymethyl)-biphenyl-4-yl]-1,2,3,6-tetrahydro-pyridine]", "pKi": "> 5.52"}, {"compound": "CC(=O)c1ccccc1-c1cc(COc2ccccc2C(F)(F)F)c(C2=CCNCC2)cc1COc1ccccc1C(F)(F)F", "note": "[Compound 350, 1-[4′-(1,2,3,6-Tetrahydro-pyridin-4-yl)-2′,5′-bis-(2-trifluoromethyl-phenoxymethyl)-biphenyl-2-yl]-ethanone]", "pKi": "> 5.52"}, {"compound": "Oc1cccc(-c2cc(COc3ccccc3C(F)(F)F)c(C3=CCNCC3)cc2COc2ccccc2C(F)(F)F)c1", "note": "[Compound 351, 4′-(1,2,3,6-Tetrahydro-pyridin-4-yl)-2′,5′-bis-(2-trifluoromethyl-phenoxymethyl)-biphenyl-3-ol]", "pKi": "> 5.52"}, {"compound": "Oc1ccc(-c2cc(COc3ccccc3C(F)(F)F)c(C3=CCNCC3)cc2COc2ccccc2C(F)(F)F)cc1", "note": "[Compound 352, 4′-(1,2,3,6-Tetrahydro-pyridin-4-yl)-2′,5′-bis-(2-trifluoromethyl-phenoxymethyl)-biphenyl-4-ol]", "pKi": "> 5.52"}, {"compound": "O=[N+]([O-])c1cccc(-c2cc(COc3ccccc3C(F)(F)F)c(C3=CCNCC3)cc2COc2ccccc2C(F)(F)F)c1", "note": "[Compound 353, 4-[3′-Nitro-2,5-bis-(2-trifluoromethyl-phenoxymethyl)-biphenyl-4-yl]-1,2,3,6-tetrahydro-pyridine]", "pKi": "> 5.52"}, {"compound": "O=[N+]([O-])c1ccc(-c2cc(COc3ccccc3C(F)(F)F)c(C3=CCNCC3)cc2COc2ccccc2C(F)(F)F)cc1", "note": "[Compound 354, 4-[4′-Nitro-2,5-bis-(2-trifluoromethyl-phenoxymethyl)-biphenyl-4-yl]-1,2,3,6-tetrahydro-pyridine]", "pKi": "> 5.52"}, {"compound": "CC(O)c1ccccc1-c1cc(COc2ccccc2C(F)(F)F)c(C2=CCNCC2)cc1COc1ccccc1C(F)(F)F", "note": "(stereo not drawn) [Compound 355, 1-[4′-(1,2,3,6-Tetrahydro-pyridin-4-yl)-2′,5′-bis-(2-trifluoromethyl-phenoxymethyl)-biphenyl-2-yl]-ethanol]", "pKi": "> 5.52"}, {"compound": "FC(F)(F)c1ccccc1OCc1cc(COc2ccccc2C(F)(F)F)c(C2=CCNCC2)cc1COc1ccccc1C(F)(F)F", "note": "[Compound 356, 4-[2,4,5-Tris-(2-trifluoromethyl-phenoxymethyl)-phenyl]-1,2,3,6-tetrahydro-pyridine]", "pKi": "> 5.52"}, {"compound": "FC(F)(F)c1ccccc1OCc1cc(-c2cc3ccccc3o2)c(COc2ccccc2C(F)(F)F)cc1C1=CCNCC1", "note": "[Compound 357, 4-[4-Benzofuran-2-yl-2,5-bis-(2-trifluoromethyl-phenoxymethyl)-phenyl]-1,2,3,6-tetrahydro-pyridine]", "pKi": "> 5.52"}, {"compound": "FC(F)(F)c1ccccc1OCc1cc(-c2ccc[nH]2)c(COc2ccccc2C(F)(F)F)cc1C1=CCNCC1", "note": "[Compound 358, 4-[4-(1H-Pyrrol-2-yl)-2,5-bis-(2-trifluoromethyl-phenoxymethyl)-phenyl]-1,2,3,6-tetrahydro-pyridine]", "pKi": "> 5.52"}, {"compound": "Nc1ccc(-c2cc(COc3ccccc3C(F)(F)F)c(C3=CCNCC3)cc2COc2ccccc2C(F)(F)F)cc1", "note": "[Compound 359, 4′-(1,2,3,6-Tetrahydro-pyridin-4-yl)-2′,5′-bis-(2-trifluoromethyl-phenoxymethyl)-biphenyl-4-ylamine]", "pKi": "> 5.52"}, {"compound": "FC(F)(F)c1ccccc1OCc1cc(-c2ccccc2)ccc1C1=CCNCC1", "note": "[Compound 360, 4-[3-(2-Trifluoromethyl-phenoxymethyl)-biphenyl-4-yl]-1,2,3,6-tetrahydro-pyridine]", "pKi": "> 5.52"}, {"compound": "Oc1ccc(-c2ccc(C3=CCNCC3)c(COc3ccccc3C(F)(F)F)c2)cc1", "note": "[Compound 361, 4′-(1,2,3,6-Tetrahydro-pyridin-4-yl)-3′-(2-trifluoromethyl-phenoxymethyl)-biphenyl-4-ol]", "pKi": "4.52 to 5.52"}, {"compound": "Oc1ccccc1-c1ccc(C2=CCNCC2)c(COc2ccccc2C(F)(F)F)c1", "note": "[Compound 362, 4′-(1,2,3,6-Tetrahydro-pyridin-4-yl)-3′-(2-trifluoromethyl-phenoxymethyl)-biphenyl-2-ol]", "pKi": "4.52 to 5.52"}, {"compound": "FC(F)(F)c1ccccc1OCc1cc(-c2ccoc2)ccc1C1=CCNCC1", "note": "[Compound 363, 4-[4-Furan-3-yl-2-(2-trifluoromethyl-phenoxymethyl)-phenyl]-1,2,3,6-tetrahydro-pyridine]", "pKi": "4.52 to 5.52"}, {"compound": "NC(=O)c1cccc(-c2cc(COc3ccccc3C(F)(F)F)c(C3=CCNCC3)cc2COc2ccccc2C(F)(F)F)c1", "note": "[Compound 364, 4′-(1,2,3,6-Tetrahydro-pyridin-4-yl)-2′,5′-bis-(2-trifluoromethyl-phenoxymethyl)-biphenyl-3-carboxylic acid amide]", "pKi": "> 5.52"}, {"compound": "COc1ccc(-c2cc(COc3ccccc3C(F)(F)F)c(C3=CCNCC3)cc2COc2ccccc2C(F)(F)F)cc1", "note": "[Compound 365, 4-[4′-Methoxy-2,5-bis-(2-trifluoromethyl-phenoxymethyl)-biphenyl-4-yl]-1,2,3,6-tetrahydro-pyridine]", "pKi": "> 5.52"}, {"compound": "OCc1ccc(-c2cc(COc3ccccc3C(F)(F)F)c(C3=CCNCC3)cc2COc2ccccc2C(F)(F)F)cc1", "note": "[Compound 366, [4′-(1,2,3,6-Tetrahydro-pyridin-4-yl)-2′,5′-bis-(2-trifluoromethyl-phenoxymethyl)-biphenyl-4-yl]-methanol]", "pKi": "> 5.52"}, {"compound": "OCc1ccccc1-c1cc(COc2ccccc2C(F)(F)F)c(C2=CCNCC2)cc1COc1ccccc1C(F)(F)F", "note": "[Compound 367, [4′-(1,2,3,6-Tetrahydro-pyridin-4-yl)-2′,5′-bis-(2-trifluoromethyl-phenoxymethyl)-biphenyl-2-yl]-methanol]", "pKi": "> 5.52"}, {"compound": "COC(=O)c1cccc(-c2cc(COc3ccccc3C(F)(F)F)c(C3=CCNCC3)cc2COc2ccccc2C(F)(F)F)c1", "note": "[Compound 368, 4′-(1,2,3,6-Tetrahydro-pyridin-4-yl)-2′,5′-bis-(2-trifluoromethyl-phenoxymethyl)-biphenyl-3-carboxylic acid methyl ester]", "pKi": "> 5.52"}, {"compound": "COC(=O)c1ccc(-c2cc(COc3ccccc3C(F)(F)F)c(C3=CCNCC3)cc2COc2ccccc2C(F)(F)F)cc1", "note": "[Compound 369, 4′-(1,2,3,6-Tetrahydro-pyridin-4-yl)-2′,5′-bis-(2-trifluoromethyl-phenoxymethyl)-biphenyl-4-carboxylic acid methyl ester]", "pKi": "> 5.52"}, {"compound": "O=C(OCc1ccccc1-c1cc(COc2ccccc2C(F)(F)F)c(C2=CCNCC2)cc1COc1ccccc1C(F)(F)F)c1ccco1", "note": "[Compound 370, Furan-2-carboxylic acid 4′-(1,2,3,6-tetrahydro-pyridin-4-yl)-2′,5′-bis-(2-trifluoromethyl-phenoxymethyl)-biphenyl-2-ylmethyl ester]", "pKi": "> 5.52"}, {"compound": "FC(F)(F)c1ccccc1OCc1cc(C2=CCNCC2)ccc1C1=CCNCC1", "note": "[Compound 371, 4-[4-(1,2,3,6-Tetrahydro-pyridin-4-yl)-2-(2-trifluoromethyl-phenoxymethyl)-phenyl]-1,2,5,6-tetrahydro-pyridine]", "pKi": "4.52 to 5.52"}]}]}
